We go through one molecule from PMC6445123 (Scientific Reports, 2019).

In general, IC50 refers to the concentration that inhibits the measured activity by half. As usually defined, the Ki is a dissociation constant, usually derived from enzyme kinetics or from competition with a known ligand. The low end stands for tighter binding, the high end for weaker binding.

The target of one experiment is T1, Casp6-WT-LS-SS (Homo sapiens, UniProt P55212).
T1 construct: obtained by co-expression and purification of LS and SS subunits of WT, L200A or K284A Casp6 from E. coli; His (C); made in house; host or cells: E. coli BL21(DE3)pLysS
T1 sequence (P55212 24-179 limits assumed): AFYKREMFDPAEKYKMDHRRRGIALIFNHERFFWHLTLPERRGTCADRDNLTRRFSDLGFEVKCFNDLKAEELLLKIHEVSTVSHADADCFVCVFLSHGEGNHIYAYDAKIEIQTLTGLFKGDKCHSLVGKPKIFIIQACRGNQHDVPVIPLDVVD
T1 sequence (P55212 194-293 limits assumed): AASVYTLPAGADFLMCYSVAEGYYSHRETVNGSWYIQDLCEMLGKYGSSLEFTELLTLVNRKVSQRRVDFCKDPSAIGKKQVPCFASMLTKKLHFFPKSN
Briefly: C13 dose-response and global-fit kinetics on Casp6-WT-LS-SS. The experiment is classed as biochemical. The source says: Figure 4 Compounds S10G and C13 inhibit Casp6 through a noncompetitive mode of inhibition. (a) Michaelis-Menten kinetic plots of Casp6 enzymatic activity in presence of 1% DMSO or increasing doses S10G (top) and C13 (bottom). Data points represent mean ± SD of three independent experiments. (b) Lineweaver-Burk plots of Casp6 inhibition with S10G (top) and C13 (bottom). Red circle indicates the point where lines converge. (c) The relationship between the slopes of lines in Lineweaver-Burk plot analyses in panel (b) and inhibitor concentration. (d) Plots of IC50 values for S10G (top) and C13 (bottom) with varying concentrations of Ac-VEID-AFC substrate. Data points represent mean ± SD from three independent experiments for each substrate concentration. (e) Binding model of C13 into CASP6 putative allosteric site, derived from molecular docking. Left: C13 (green sticks) occupies the putative allosteric site (white surface and lines; Ala-mutated residues L200 and K284 shown as purple sticks). Right: predicted interactions with Casp6 allosteric pocket residues (pink balls polar, circled blue or red for basic and acidic, respectively. Green balls = hydrophobic. Dotted-arrow: blue and green for backbone and sidechain hydrogen-bond interactions, respectively. Blue shade = solvent exposed area). […] Data points on the graph represent the mean ± SD, and calculated Ki values represent mean ± standard error (SE) from three independent experiments. […]
(§1) Compounds, S10G (2.5 µM, 4.2 µM, 10 µM), and C13 (5 µM, 14 µM, 50 µM), were added to 20 nM active site titrated Casp6 and enzyme activity was measured with eight different Ac-VEID-AFC substrate concentrations (5.0 μM–200 μM) using fluorescence-based Casp6 activity assay as above. The apparent KM and Vmax values were determined through nonlinear regression analysis of Michaelis-Menten plots (v vs. [S]) using GraphPad Prism 5. The inhibition mode was determined from the pattern of converging Lineweaver-Burk plots (1/v vs. 1/[S])[54]. […]

Another experiment addresses T2, Casp6-L200A-LS-SS (Homo sapiens, UniProt P55212, L200A).
T2 construct: obtained by co-expression and purification of LS and SS subunits of WT, L200A or K284A Casp6 from E. coli; His (C); made in house; host or cells: E. coli BL21(DE3)pLysS
T2 sequence (P55212 24-179 limits assumed): T1 sequence (P55212 24-179 limits assumed)
T2 sequence (P55212 194-293 L200A limits assumed): T1 sequence (P55212 194-293 limits assumed) with L7A
Briefly: C13 dose-response and global-fit kinetics on Casp6-L200A-LS-SS. Format: biochemical.
Excerpt: Figure 4 Compounds S10G and C13 inhibit Casp6 through a noncompetitive mode of inhibition. (a) Michaelis-Menten kinetic plots of Casp6 enzymatic activity in presence of 1% DMSO or increasing doses S10G (top) and C13 (bottom). Data points represent mean ± SD of three independent experiments. (b) Lineweaver-Burk plots of Casp6 inhibition with S10G (top) and C13 (bottom). Red circle indicates the point where lines converge. (c) The relationship between the slopes of lines in Lineweaver-Burk plot analyses in panel (b) and inhibitor concentration. (d) Plots of IC50 values for S10G (top) and C13 (bottom) with varying concentrations of Ac-VEID-AFC substrate. Data points represent mean ± SD from three independent experiments for each substrate concentration. (e) Binding model of C13 into CASP6 putative allosteric site, derived from molecular docking. Left: C13 (green sticks) occupies the putative allosteric site (white surface and lines; Ala-mutated residues L200 and K284 shown as purple sticks). Right: predicted interactions with Casp6 allosteric pocket residues (pink balls polar, circled blue or red for basic and acidic, respectively. Green balls = hydrophobic. Dotted-arrow: blue and green for backbone and sidechain hydrogen-bond interactions, respectively. Blue shade = solvent exposed area). Dose-response curves of C13 for Casp6-WT and Casp6-K284A (f), and copurified LS and SS of Casp6-WT-LS-SS, Casp6-L200A-LS-SS, and Casp6-K284A-LS-SS (g). Data represent mean ± SD from at least three independent experiments. (h) Global fit of kinetics data to a noncompetitive (mixed) inhibition model for Casp6-WT-LS-SS (left panel, R^2 = 0.9635), Casp6-L200A-LS-SS (middle panel, R^2 = 0.9699), and Casp6-K284A-LS-SS (right panel, R^2 = 0.9794) in the presence of 0–50 µM C13. Data points on the graph represent the mean ± SD, and calculated Ki values represent mean ± standard error (SE) from three independent experiments.
To determine the importance of C13 interactions with L200 and K284 for C13 binding in the Casp6 allosteric pocket, we have generated Casp6-L200A and Casp6-K284A mutants and investigated inhibition with C13. […]
as §1

Setting [1] is: Ac-VEID-AFC hydrolysis, increasing substrate and C13 concentrations.
Setting [2] is: global fit to noncompetitive (mixed) model, 0–50 µM C13, mean ± SE.

Structures are written as SMILES. Substitutions are numbered along the chain they refer to. Several values for one entry are separate records, joined by “and”; a condition that tells them apart may be missing. Equal entries are not always repeated.

`COC(=O)c1cc(CNC(=O)C2Cc3ccccc3O2)cc(NC(=O)c2ccco2)c1` (stereo not shown) [Compound C13]: the “inhibition model (best global fit), Casp6-WT-LS-SS” value against Casp6-WT-LS-SS (setting [1]) is reported as “noncompetitive (mixed) model inhibition”. For the same molecule, the IC50 at Casp6-WT-LS-SS (copurified LS and SS, read-out: IC50 of C13 for Casp6-WT-LS-SS (Fig. 4g)) was 31.8 ± 6.7 µM; at Casp6-L200A-LS-SS (copurified LS and SS, read-out: IC50 of C13 for Casp6-L200A-LS-SS (Fig. 4g)) it was 23.4 ± 4.5 µM. The Ki on Casp6-WT-LS-SS (setting [2]) was 7.45 µM and 7.5 µM; at Casp6-L200A-LS-SS (setting [2]) it was 6.82 µM and 6.8 µM. The “fold lower IC50 for Casp6-L200A-LS-SS compared to Casp6-WT-LS-SS” value on Casp6-L200A-LS-SS is listed as 1.4 fold. On Casp6-L200A-LS-SS (setting [1]), the “inhibition model (best global fit), Casp6-L200A-LS-SS” value is recorded as “noncompetitive (mixed) model inhibition”.
